Changes are numbered by the printed parent chain.
What was measured:
[1] = system: Rho/M4NC-β2 TM II–VII (TM II–VII region from the β2-adrenergic receptor in pCMV-Rho/M4NC); experiment: Single-cell FURA-2 Ca2+ imaging, HEK-293 cells co-transfected with Rho/M4NC-β2 TM II–VII and Gα15,16; type: cell-based, human; conditions: bath application; cells co-transfected with Gα15,16
Protocol: HEK-293 cells (obtained from the ATCC) were grown in DMEM supplemented with 10% fetal bovine serum, penicillin (100 U/ml), streptomycin (100 μg/ml) and L-glutamine (2 mM) in 5% CO2. […] After 5 to 7 hr incubation, the cells were washed once with PBS containing 0.5 mM EDTA and 10% DMSO, then with PBS before continuing growth in regular media for 40–50 hr.
Efficient screening of expressed olfactory receptors with a large number of ligands by functional analysis requires a robust and sensitive assay system. […] In this reporter system, (olfactory) receptor activation leads to the generation of an IP3-mediated increase in intracellular Ca^2+, which can be measured at the single-cell level with high sensitivity and good temporal resolution using the dye FURA-2 and radiofluorometric imaging.
A construct with the TM II–VII region from the β2-adrenergic receptor inserted in the pCMV-Rho/M4NC vector (Rho/M4NC-β2 TM II–VII) was co-transfected with Gα15,16 into HEK-293 cells. […] Images of fluorescent cells were obtained on a Zeiss 510 confocal microscope with excitation at 488 nm.
These transfected cells were then tested for their ability to functionally respond to ligand-receptor binding. The ligand, the adrenergic agonist isoproterenol, was “bath” applied to the transfected cells and single cell Ca^2+-imaging was performed. Cells were pre-loaded with the Ca^2+-sensitive fluorescent dye FURA-2 AM (Molecular Probes) by bathing in serum-free DMEM containing 4 μM of the membrane permeant chemical for 1 hr at 37° C., then washed with a standard bath solution (130 mM NaCl, 2 mM CaCl2, 5 mM KCl, 10 mM glucose, 10 mM Na.HEPES/pH 7.4 at room temperature). […] Acetylcholine was applied at the end of each experiment at 10 μM for 15–20 seconds. […] At 5-second intervals, the cells were sequentially illuminated for less than 100 ms, first at 340 nm and then at 380 nm. Fluorescence emission at 510 nm was monitored for each excitation wavelength via an intensified CCD camera. Averaged pixel intensities within 40 to 100 regions of interest, corresponding to 40 to 100 individual cells, were digitized and stored on a computer. Attofluor-Ratiovision software (Atto Instruments) was used to determine the Ca^2+-dependent fluorescence signal expressed as the F340/F380 ratio.

[2] = system: Rho/M4NC-ratI7 TM II–VII chimeric receptor; experiment: Ca2+ imaging, HEK-293 cells co-expressing Rho/M4NC-ratI7 TM II–VII chimeric construct and Gα15,16; type: cell-based, rat; conditions: for relative Ca2+ response, octanal vs heptanal: identical experiments to mouse I7 chimera
Protocol: HEK-293 cells (obtained from the ATCC) were grown in DMEM supplemented with 10% fetal bovine serum, penicillin (100 U/ml), streptomycin (100 μg/ml) and L-glutamine (2 mM) in 5% CO2. Before transfection, the cells were seeded onto poly-L-lysine-coated 10.5×35×0.17 mm glass coverslips (Bellco) placed in the 60 mm culture dishes. Calcium phosphate-mediated transfections were performed in a 60 mm dish with 3 to 4 μg of receptor construct DNA, 1 μg of pCIS Gα 15 and Gα16 expression vector (Offermanns (1995) supra). 2 μg of pBluescript carrier DNA, and 0.3 μg of pRSV-T antigen expression vector (Gorman (1990) DNA and Protein Eng. Tech. 2:3–9). After 5 to 7 hr incubation, the cells were washed once with PBS containing 0.5 mM EDTA and 10% DMSO, then with PBS before continuing growth in regular media for 40–50 hr.
Efficient screening of expressed olfactory receptors with a large number of ligands by functional analysis requires a robust and sensitive assay system. Although the established role of cAMP in olfactory signaling offers a biochemical approach involving measurement of cAMP production in response to odorant stimulation, an alternative, rapid assay is to co-express the cloned olfactory receptors with G protein Gα15,16 subunits (see, e.g., Offermanns (1995) J. Biol. Chem. 270:15175–15180), which can promiscuously couple 7-transmembrane domain receptors that normally signal through other second messengers to the PIP2 pathway. In this reporter system, (olfactory) receptor activation leads to the generation of an IP3-mediated increase in intracellular Ca^2+, which can be measured at the single-cell level with high sensitivity and good temporal resolution using the dye FURA-2 and radiofluorometric imaging. These attributes were able to compensate for the low transfection efficiency in transient expression systems that would hinder more traditional biochemical assays.
These transfected cells were then tested for their ability to functionally respond to ligand-receptor binding. The ligand, the adrenergic agonist isoproterenol, was “bath” applied to the transfected cells and single cell Ca^2+-imaging was performed. Cells were pre-loaded with the Ca^2+-sensitive fluorescent dye FURA-2 AM (Molecular Probes) by bathing in serum-free DMEM containing 4 μM of the membrane permeant chemical for 1 hr at 37° C., then washed with a standard bath solution (130 mM NaCl, 2 mM CaCl2, 5 mM KCl, 10 mM glucose, 10 mM Na.HEPES/pH 7.4 at room temperature). For each experiment, a glass coverslip with FURA-2 loaded HEK 293 cells was introduced into an open-topped, longitudinal microperfusion chamber (300 μl bath volume mounted on a Zeiss Axiovert 135 microscope equipped with an F Fluar 40×/1.30 oil-immersion lens. The cells were superfused with test solutions typically for 30 to 40 seconds (5 ml/application) and washed out with 5 ml of bath solution at the end of each application. Each test solution was freshly diluted and manually applied with a micropipette into the chamber. Because of this manual procedure, there could be several seconds of delay in actual application from electronic tick marks used to define the beginning of application in each graph. At the same time, the solution flow might not be completely laminar. In most cases, the onset of Ca2+ rise in response to a specific solution occurred within 15 seconds of the beginning of solution application, though longer delays were sometimes observed. Acetylcholine was applied at the end of each experiment at 10 μM for 15–20 seconds. Ratiometric Ca^2+ measurements were performed as described by Grynkiewicz (1985) 260:3440–3450, with modifications using the Zeiss/Attofluor-Ratiovision imaging system. At 5-second intervals, the cells were sequentially illuminated for less than 100 ms, first at 340 nm and then at 380 nm. Fluorescence emission at 510 nm was monitored for each excitation wavelength via an intensified CCD camera. […]

[3] = biological target: T1, full-length rat I7 olfactory receptor fused to rhodopsin N-terminus (Rattus norvegicus, UniProt P23270); experiment: Ca2+ imaging, HEK-293 cells expressing translocation domain (rhodopsin N-terminus) fused to full-length rat I7; type: cell-based
T1 construct: expressed in transfected cells; host or cells: HEK-293 with Gα15,16
T1 sequence (P23270 1-327): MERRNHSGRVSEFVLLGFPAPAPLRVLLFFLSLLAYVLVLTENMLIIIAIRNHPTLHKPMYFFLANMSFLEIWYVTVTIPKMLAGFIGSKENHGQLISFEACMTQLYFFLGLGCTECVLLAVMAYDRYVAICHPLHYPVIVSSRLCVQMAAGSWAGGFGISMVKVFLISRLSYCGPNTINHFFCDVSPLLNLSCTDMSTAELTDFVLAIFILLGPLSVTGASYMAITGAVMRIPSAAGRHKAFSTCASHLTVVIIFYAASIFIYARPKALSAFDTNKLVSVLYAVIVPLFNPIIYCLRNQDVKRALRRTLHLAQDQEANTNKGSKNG

[4] = system: Rho/M4NC-mouse I7 transmembrane II–VII chimeric receptor; experiment: Ca2+ imaging, Rho/M4NC-mouse I7 TM II–VII chimeric receptor in HEK-293 cells; type: cell-based; conditions: 10 μM
[5] = biological target: T2, full-length rat I7 receptor, residue 206 valine/isoleucine substitution (Rattus norvegicus, UniProt P23270, V206I); experiment: Ca2+ imaging, full-length rat I7 receptor with valine/isoleucine substitution at residue 206; type: cell-based; conditions: heptanal vs octanal
T2 construct: expressed in transfected cells; not repeated
T2 sequence (P23270 1-327 V206I): T1 sequence (P23270 1-327) with V206I

[6] = biological target: T3, full-length mouse I7 receptor, residue 206 valine/isoleucine substitution (Mus musculus, UniProt Q9QWU6, I206V); experiment: Ca2+ imaging, full-length mouse I7 receptor with valine/isoleucine substitution at residue 206; type: cell-based; conditions: heptanal vs octanal
T3 construct: expressed in transfected cells; not repeated
T3 sequence (Q9QWU6 1-327 I206V): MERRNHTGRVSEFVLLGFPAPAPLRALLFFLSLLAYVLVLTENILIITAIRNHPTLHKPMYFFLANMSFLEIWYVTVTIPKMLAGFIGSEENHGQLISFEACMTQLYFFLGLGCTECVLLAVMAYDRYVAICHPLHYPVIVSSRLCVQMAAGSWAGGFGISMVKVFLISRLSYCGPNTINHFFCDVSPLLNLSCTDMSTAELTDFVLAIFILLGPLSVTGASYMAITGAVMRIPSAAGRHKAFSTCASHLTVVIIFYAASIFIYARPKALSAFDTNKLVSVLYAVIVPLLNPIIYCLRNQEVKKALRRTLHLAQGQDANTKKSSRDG

Row | SMILES | intracellular Ca2+ response (FURA-2 F340/F380) [1] | intracellular Ca2+ response ([2]; 10 μM) | intracellular Ca2+ response ([2]; 30 μM) | relative Ca2+ response, octanal vs heptanal [2] | intracellular Ca2+ response ([3]; 30 μM) | intracellular Ca2+ response [4] | ligand preference [5] | Ca2+ response to a second application ([2]; second application, even at 30 μM (desensitization)) | dependence of the Ca2+ response on Gα15,16 ([2]; with vs without Gα15,16) | intracellular Ca2+ response ([3]; 1 μM) | ligand preference [6]
1 | CCCCCCC=O [heptanal] | no effect | not 10 μM | responded to 30 μM | responded better to octanal than to heptanal | small response | responded only to heptanal | preferentially recognize heptanal | – | – | – | –
2 | CCCCCCCC=O [octanal] | no effect | Ca^2+ transient was observed | – | responded better to octanal than to heptanal | – | – | – | little or no effect | required the presence of Gα15,16 | responded | preferentially recognize octanal

— patent US7138242B2, “Olfactory receptor expression libraries and methods of making and using them” (Johns Hopkins University, priority 1998, dated 2006)
